Measurements taken from patent US20060287233A1, “Method of use of antagonists of zonulin to prevent the loss of or to regenerate pancreatic cells” (priority 2005, published 2006).
“Also recorded” adds a separate entry of the source. Ends that are not written are not given here.

Tests used:
rabbit ileum = experiment: Tissue resistance (Rt) of rabbit ileum mounted in Ussing chambers
Procedure: Next, rabbit ileum mounted in Ussing chambers as described below, were exposed to 100 μg of FZI/O (SEQ ID NO:15), 100 μg of FZI/1 (SEQ ID NO:29), 1.0 μg of 6×His-ZOT (obtained as described in Example 1 of U.S. patent application Ser. No. 09/127,815, filed Aug. 3, 1998), 1.0 μg of zonulini (obtained as described in Example 3 of U.S. patent application Ser. No. 09/127,815, filed Aug. 3, 1998), or 1.0 μg of zonulinh (obtained as described in Example 3 of U.S. patent application Ser. No. 09/127,815, filed Aug. 3, 1998), alone; or pre-exposed for 20 min to 100 μg of FZI/O or FZI/1, at which time 1.0 μg of 6×His-ZOT, 1.0 μg of zonulini, or 1.0 μg of zonulinh was added. ΔRt was then calculated as Rt=PD/Isc where PD=potential difference and Isc=short circuit current.

BB/Wor rats = experiment: Prevention of diabetes in BB/Wor rats, antagonist in drinking water; assay type: in vivo, rat; details: 10 μg/ml in drinking water, n=5
Procedure: Both groups were maintained on a standard diet of rat chow (Harlan Teklab Diet #7012). All food and water were previously autoclaved. Each day, daily water intake was measured and 100 ml of fresh water was given. The treated group received 10 μg/ml of the zonulin peptide antagonist (SEQ ID NO: 15) supplemented in the drinking water. The rats were housed in hepa-filter cages.
Diabetes in the rats was diagnosed as follows: The rats were weighed twice a week. Blood glucose was determined weekly using the OneTouch® glucose monitoring system (Johnson & Johnson). Each week, reagent strips for urinalysis were used to monitor glucose (Diastix®) and ketones (Ketositx®) (Bayer). Rats with a blood glucose >250 mg/dl were fasted overnight, and blood glucose levels >200 mg/dl were considered diabetic.
Following clinical presentation of diabetes, the rats were sacrificed as follows: the rats were anesthesized using ketamine anesthesia and a midline incision was made allowing access to the heart. An 18 G needle was placed into the heart and death occurred by exsanguinations. Then, zonulin assays were conducted as described above. […] According to Biomedical Research Models, Inc., 80% of diabetes prone rats present with diabetes by age 80 days.

BBDP rats = experiment: Treatment of autoimmune diabetes in BBDP rats, therapy initiated after seroconversion; assay type: in vivo, rat
Procedure: A test group of 52-54 day old diabetes-prone rats were treated with a zonulin antagonist peptide AT1001 (SEQ ID NO:15) while an age matched control group was not treated. The antagonist was administered at this time because at 40 days these rats show an increase in zonulin levels and at 50 days autoimmune antibodies can be detected. Thus, treatment was started after […].
BBDP animals age 52-54 were days divided in two groups. Group 1 (n=20) received AT-1001 daily in drinking water+HCO3. Group 2 (n=10) received drinking water+HCO3. Animals were randomized to receive either placebo or treatment with the synthetic zonulin peptide inhibitor AT-1001 (SEQ ID:15) in their water supply in a blinded fashion during treatment arm T0. At the disease endpoint (fasting blood glucose>250 mg/dl), BBDP rats that developed T1D (60% incidence in placebo group, average age 110 days) were euthanized and blood and tissue samples collected. […] Serum zonulin and autoantibody levels were monitored at the beginning of the study and at its endpoint. Water intake was monitored daily, while weight gain and serum glucose levels were checked weekly. Rats with fasting blood glucose ≧250 mg/dl were considered diabetic and were sacrificed within 24 hours of reaching the diabetic status.

[1] = test system: pancreatic islets of BBDP rats; experiment: Histology and immunohistology of pancreata of BBDP rats; assay type: in vivo, rat; details: treated rats that did not develop T1D; listed as AT1001
Procedure: Samples of the pancreas were taken from animals that had been treated starting at day […] and examined. The results of the histological examination are shown in FIG. 9 and the results of the immunohistological examination are shown in FIG. 10.
To verify the identities of the cells observed in the histological analysis, immunohistological examination was conducted. Pancreata were sequentially stained with either anti-glucagon antibody, which is specific for glucon-producing […], or with anti-insulin antibodies, which is specific for insulin-producing β-cells. When untreated pancreas is stained with anti-insulin antibodies, no signal is detected. This is consistent with the destruction of β-cells in T1D. Staining of these cells with anti-glucagon antibodies identifies glucagon producing […]. Normal islets have a loaf-shaped structure with the outside of the islet containing […] and the inside of the islet containing β-cells. […] The structure of the islets was more normal as indicated by the staining pattern with anti-glucagon antibodies FIG. 10D.

Substance | change in Rt as compared to the negative control (rabbit ileum; 100 μg peptide alone) [%] | decrease of the effect of ZOT on Rt (rabbit ileum; pre-treatment for 20 min with 100 μg peptide, then 1.0 μg 6×His-ZOT) [%] | decrease of the effect of zonulinh on Rt (rabbit ileum; pre-treatment for 20 min with 100 μg peptide, then 1.0 μg zonulinh) [%] | decrease of the effect of zonulini on Rt (rabbit ileum; pre-treatment for 20 min with 100 μg peptide, then 1.0 μg zonulini) [%] | rats that developed diabetes by age 80 days (BB/Wor rats) [%] | treated rats that did not develop diabetes (BB/Wor rats) [%] | animals that developed diabetes under continued treatment (BBDP rats; continued treatment after 120 days, arm T1) | anti-glutamic acid decarboxylase (GAD) antibodies (BBDP rats; following treatment) | average age of onset of T1D (BBDP rats; treated group) [days] | animals that progressed to T1D (BBDP rats; treatment arm T0, in drinking water from age 52-54 days) [%] | rats that developed diabetes (BBDP rats; treatment arm T0, treated group n=20) | progression to T1D (BBDP rats; up to age 205 days (150 days post-treatment)) | animals that developed diabetes after treatment was withdrawn (fraction) (BBDP rats; withdrawal after 120 days) | onset of T1D after withdrawal of treatment (BBDP rats; withdrawal at age 120 days, arm T1) [%] | pancreas histology (haematoxylin and eosin) [1] | pancreatic islet immunohistology (insulin and glucagon staining) [1] | inhibitory effect on the Rt change induced by ZOT, zonulini and zonulinh (rabbit ileum; pre-exposure for 20 min to 100 μg peptide)
GGVLVQPG [FZI/O, synthetic octapeptide corresponding to amino acid residues 8-15 of human fetal zonulin] | 0.5 | 75 | 100 | 97 | 40 | 60 | none | significant reduction | 86.0 ± 10.3 | 35 | 7 of 20 | significantly reduced | ⅓ | 33 | evidence of the regeneration of β-cells was observed; also recorded: either normal islet histology or islet showing signs of recovery from insulitis; also recorded: perivascular inflammation without insulitis | preserved islets with detectable insulin-producing beta cells; also recorded: islets that were either undamaged (C and D) or showed signs of recovery from an insulitis insult | –
FZI/1: second synthetic peptide: Gly in position 8, Val in position 12, Gln in position 13 changed to residues of zonulinb (Val, Gly, Arg) (VGVLGRPG; sythetic peptide) [reference compound] | – | – | – | – | – | – | – | – | – | – | – | – | – | – | – | – | completely ablated
